Test results from patent publication US20040175419A1, “Control of compactibility through cystallization” (priority 2001, published 2004).
Blank lines part the entries; values can stand above or below the compound they belong to.

Experiments:
Format in all cases: physicochemical
[1] = Dynamic indentation hardness by pendulum impact apparatus; details: square compacts without a hole
Experimental: The square compacts (without a hole) are then subjected to a dynamic indentation hardness evaluation using a pendulum impact apparatus as described in Tablet Indices^11. The velocity at which the pendulum sphere impacts the compact as well as the speed with which the pendulum sphere is rebound from the compact is recorded. The indentation made on the compact surface by the procedure described above is measured with a surface analyzer that facilitates computation of the chordal radius of the indentation. These measurements are then used to calculate the dynamic indentation hardness of the material using the equation described below: [formula]
where, m and r are the mass and radius of the indenting sphere, respectively and hi and hr are the inbound and rebound heights, respectively and a is the chordal radius of the indentation created on the compact surface. G is acceleration due to gravity. […] This value is much lower than that of the standard compressible filler, Avicel PH 102 that has a hardness of 352 MN/m^2. […] The hardness value for Lot # 2 was 52.9 MN/M^2±8.2 MN/M^2. The increase in hardness of the material from the optimized crystallization process is not significant enough to change the conclusion drawn earlier about its ductility.

[2] = Tensile strength of square compacts from tri-axial decompression press (Hiestand tablet indices); details: square compacts prepared at a solid fraction of 0.85
Experimental: In order to characterize the deformation mechanism of the API, Hiestand's tablet indices (see, E. N. Hiestand and D. P. Smith, Powder Technology, 38, pp 145-159 (1984) hereby incorporated by reference) were evaluated. The identical procedure as developed by E. N. Hiestand, at the Pharmacia and Upjohn company was adapted for evaluating the deformation properties of the API. In brief, square shaped compacts (1.97 cm^2) were prepared using a tri-axial decompression Loomis Engineering press. This tri-axial press facilitates compression pressure relief in three dimensions as opposed to […] as in the uni-axial press. […] Through tri-axial decompression it is possible to produce virtually flawless compacts. The API was compressed with the procedure describe above to produce compacts having a relative density or solid fraction of 0.85. The compacts were then subjected to tensile strength testing on an Instron stress-strain analyzer at a cross head speed of about 0.8 mm/min. This speed allowed the time constant between the peak stress and 1/e times the peak stress to be a constant of 10 seconds. […]
where, σ is the tensile strength calculated and F is the force required to initiate crack propagation in the compact and l and b are the length and breadth of the compact, respectively. […]

[3] = Brittle fracture index (BFI) from compacts with and without a 1 mm hole; details: square compacts; scale 0 to 1
Experimental: Similarly, the tensile strength is determined for square compacts that are prepared with a magnified flaw using the tri-axial decompression press and a upper punch having a 1 mm diameter pin spring loaded on its surface. This pin facilitates the introduction of a 1 mm diameter hole in the center of the compact. The tensile strength values of the compacts with and without a hole are used to evaluate the brittle fracture index (BFI) of the material as shown below: [formula]
Where, σT is the tensile strength of the square compacts without a hole in the center and σTo is the tensile strength of the square compacts with a 1 mm hole in the center that acts as a stress concentrator.

[4] = Solid-state stability of crystal forms; details: compared with forms 5, 6, 7
From the text: Due to the unique structure of the API material at least four different groups of crystal structures were observed (forms 4, 5, 6, 7) and analyzed by single crystal x-ray. […] Orthorhombic Form 6 consisted of a group of isostructural (1:1) solvates which accommodates solvents such as EtOAc, acetone and MEK. […] An exhaustive study of API crystallization on the feasibility of various solvents, control of polymorphs, and robustness of process concluded that the selected form could be consistently produced and kept stable in iPrOAc (or BuOAc)/Heptane (or Cyclohexane), following which a reproducible crystallization procedure in the iPrOAc/heptane solvent system was developed and implemented. This procedure, associated with the aminolysis of penultimate compound (Chemical Abstracts Systematic Name, (αS)-α-(Benzoylthio)-3,4,4-trimethyl-2,5-dioxo-1-imidazolidinebutanoyl-L-leucyl-N,3-dimethyl-L-valinamide), is successful in purging undesirable side products/impurities such as α,α′-Dithiobis[N-[1-[[[2,2-dimethyl-1-[(methylamino)carbonyl]propyl]amino]-carbonyl]-3-methylbutyl]-3,4,4-trimethyl-2,5-dioxo-1-imidazolidinebutanamide] which is the S,S′-dimer of the API. The crystallization procedure is further described in Table 1.

[5] = Agglomerate size of API crystallized at different supersaturation
Experimental: The crystallization parameters and seeding conditions (using “as is” API at 0.1-0.2%) described in the procedure outlined in Table 1 was adopted as a starting point for modifications. By changing the ratio of solvent/antisolvent (isopropyl acetate/heptane) in step 3 (Table 1) from 1.67 to 1.0 and varying the pot temperature from 80 to 50° C., the degree of supersaturation was increased by a factor of 5 (from about 3.5 to about 17.5). The materials made from these conditions are generally agglomerates formed by a cluster of primary crystals plus the conjunction material which glue these crystals together.
At low supersaturation, large agglomerates (500-1000 μm) with large primary crystals (also large) were obtained. At high supersaturation the procedure generates small agglomerates (200-300 μm) with smaller primary crystals. This is consistent with other crystallization systems, in which nucleation is rate limiting, where high supersaturation favors the formation of agglomerates and mild supersaturation results in elementary crystals. Generally, these agglomerated materials compact quite poorly and create difficulties for large scale, high speed tablet manufacture. […] The manipulation of supersaturation was consequently not pursued further. […]

[6] = Compactability (slope of tensile strength versus compression pressure) of 80% API powder blend compressed on an Instron; details: for compactability of the powder blend: 80% bulk drug and 20% excipient
Experimental: In order to evaluate the compressibility and compactability of all API lots generated by modifying the crystallization process, a blend of 80% API, 19.5% microcrystalline cellulose and 0.5% magnesium stearate was prepared by mixing in a tumble mixer for 5 minutes. Each mixture was then compressed on an Instron (Universal Stress-Strain Analyzer) using a 0.5 inch diameter tooling (upper and lower punches and die) at a speed of 100 mm/min at compression forces of 5, 10, 15, 20 and 25 kN each for a replicate of three tablets. The tablet dimensions were measured using a digital Vernier calliper and the strength of the tablets were determined using an Erweka hardness tester. The volume of the tablet can be calculated from the tablet dimensions normalized for the true density of the mixture being compressed. The compressibility curves are generated by plotting the solid fraction of the tablet generated at each compression pressure versus the respective compression pressure. The area under such a curve represents the extent of volume reduction. The force required to break the tablets is normalized for the area of the tablet to obtain the tensile strength value. Slopes for profiles of tensile strength versus the compression pressure represent the compactability of the material while the area under the curve of tensile strength versus the solid fraction of the tablets represents the extent of compaction or toughness of the material.

[7] = Bonding Index calculated from tensile strength and dynamic indentation hardness
From the text: The Bonding Index of the material can be calculated from the tensile strength measurements as well as the dynamic indentation hardness measurements described above using the equation shown below: [formula]
The highest bonding index value observed today is that of microcrystalline cellulose Avicel PH 101 which is 0.04. The bonding index of Lot # 2 was 0.034±0.001.

[8] = Crystallinity by X-ray diffraction after milling; details: milled API, FIG. 4
From the text: This amorphization through the milling process can lead to chemical instability of the API. […] This clearly illustrated that modification of the crystallization process parameters to achieve higher compactability of the API is the preferred choice.

dynamic indentation hardness [1]: 35.8 MN/m^2
tensile strength ([2]; listed as MMPI Lot# 1): 90.46 N/cm^2
brittle fracture index (BFI) [3]: 0.14±0.03
SMILES: CNC(=O)[C@@H](NC(=O)[C@H](CC(C)C)NC(=O)[C@@H](S)CCN1C(=O)N(C)C(C)(C)C1=O)C(C)(C)C [Lot# 1, N-[(2S)-2-Mercapto-1-oxo-4-(3,4,4-trimethyl-2,5-dioxo-1-imidazolidinyl)butyl]-L-leucyl-N,3-dimethyl-L-valinamide]

SMILES: CNC(=O)[C@@H](NC(=O)[C@H](CC(C)C)NC(=O)[C@@H](S)CCN1C(=O)N(C)C(C)(C)C1=O)C(C)(C)C [Form 4, N-[(2S)-2-Mercapto-1-oxo-4-(3,4,4-trimethyl-2,5-dioxo-1-imidazolidinyl)butyl]-L-leucyl-N,3-dimethyl-L-valinamide]
stability of crystal structure in the solid state [4]: did not transform/decompose to other crystalline structures in the solid state

agglomerate size ([5]; high supersaturation): 200-300 μm
agglomerate size ([5]; low supersaturation): 500-1000 μm
compactability ([6]; 1% ground seeds, with sonication): 12.3 kPa/MPa
product compactability ([6]; 50-g sample, 1% AirJet-milled seeds): 4.2 kPa/MPa
product compactability ([6]; 50-g sample, 1% ball-milled seeds): 5.9 Kpa/MPa
product compactability ([6]; 50-g sample, 1% ground seeds, without sonication): 10.5 kPa/MPa
product compactability ([6]; 50-g sample, 1% seeds crystallized from a ground seeded batch): 5.3 kPa/MPa
compactability ([6]; 50-g sample, 1.5% ball-milled seeds): 7.0 kPa/MPa
compactability ([6]; 50-g sample, 4% ground seeds): 14.4 kPa/MPa
improvement in compactability over material generated by the current process ([6]; 50-g sample, 4% ground seeds): ~10 fold
compactability ([6]; 50-g sample, 5% ground seeds): 12.6 kPa/MPa
powder blend compactability ([6]; 50 g scale, crystallization seeded with 5% large agglomerates): 3.65 kPa/MPa
compactability of the powder blend ([6]; 100 Kg scale, "as is" material at 1.5% seed loading): 2.8-3.4 kPa/Mpa
compactability of the powder blend ([6]; "as is" seed, 0.1% seed loading (representative)): 1.4-1.7 kPa/Mpa
change of compactability after milling ([6]; milled API, FIG. 3): gain in compactability
bonding index [7]: 0.025±0.001
change of crystallinity after milling (X-ray diffraction patterns) [8]: reduction in the crystallinity
SMILES: CNC(=O)[C@@H](NC(=O)[C@H](CC(C)C)NC(=O)[C@@H](S)CCN1C(=O)N(C)C(C)(C)C1=O)C(C)(C)C [API, N-[(2S)-2-Mercapto-1-oxo-4-(3,4,4-trimethyl-2,5-dioxo-1-imidazolidinyl)butyl]-L-leucyl-N,3-dimethyl-L-valinamide]

dynamic indentation hardness [1]: 52.9 MN/m^2
tensile strength [2]: 181.90 N/cm^2
bonding index [7]: 0.034±0.001
brittle fracture index (BFI) [3]: 0.20±0.02
SMILES: CNC(=O)[C@@H](NC(=O)[C@H](CC(C)C)NC(=O)[C@@H](S)CCN1C(=O)N(C)C(C)(C)C1=O)C(C)(C)C [Lot# 2, N-[(2S)-2-Mercapto-1-oxo-4-(3,4,4-trimethyl-2,5-dioxo-1-imidazolidinyl)butyl]-L-leucyl-N,3-dimethyl-L-valinamide]
